Read-outs that look alike come from different tables or passages of the source.
Columns and labels:
Swiss white mice = assay: in vivo
Procedure: (§1) Mammalian toxicity was determined against Swiss white mice. The test compound was applied orally using corn oil or propylene glycol as the carrier, depending upon solubility of the compound therein.

[1] = tested on: house flies, Musca domestica; assay: Topical insecticidal activity against house flies (percent mortality 24 hours after application); assay type: in vivo; details: read-out: House flies LD50
Procedure: (§2) Representative compounds of the N,N'-sulfinyldicarbamate esters of the invention were tested for insecticidal activity against two insect species, house flies, Musca domestica, and mosquito larvae, Culex pipiens. Stock 1% concentrated solutions of each of the test compounds were made in acetone, and such solutions diluted with acetone to a concentration of 0.001-0.1%. House flies were treated topically on the notum by 1 μl of each of the diluted acetone solutions and percent mortality was counted 24 hours after application. Insects were held at a constant temperature of 60° F. Larvicidal activity was determined by applying 1 ml of the acetone solution in 100 ml of water containing 20 3rd instar mosquito larvae. Results are presented as LD50 in μg/g for house flies and LC50 in ppm for mosquito larvae.

in vivo = details: mouse, in vivo, po
Procedure: as §1

[2] = tested on: mosquito larvae, Culex pipiens; assay: Larvicidal activity against mosquito larvae; assay type: in vivo; details: 3rd instar larvae, 1 ml acetone solution in 100 ml water, 20 larvae
Procedure: as §2

[3] = topical on the notum, 1 μl acetone solution, 24 hours, 60° F.

Compound	LD50 ([1]; topical, 24 h) [mg/kg]	LD50 (in vivo) [mg/kg]	further results
CNC(=O)Oc1ccccc1OC(C)C [2-isopropoxyphenyl methylcarbamate, reference compound]			Mice LD50 (Swiss white mice; oral, corn oil or propylene glycol carrier): 60 mg/kg
CCOC(=O)N(C)[S+]([O-])N(C)C(=O)Oc1cccc(C(C)C)c1 (centres unmarked) [3-isopropylphenyl N-[N'-(ethoxycarbonyl)-N'-(methylaminosulfinyl)]-N-methylcarbamate]	75	50 to 100	
CN(C(=O)Oc1cccc2c1OC(C)(C)C2)[S+]([O-])N(C)C(=O)Oc1cccc2c1OC(C)(C)C2 [Example I, N,N'-sulfinyldi-(2,3-dimethyl-2,3-dihydrobenzofuranyl-7 methylcarbamate)]	20	165	
CC(C)Oc1ccccc1OC(=O)N(C)[S+]([O-])N(C)C(=O)Oc1ccccc1OC(C)C [Example II, N,N'-sulfinyldi-(2-isopropoxyphenyl methylcarbamate)]	85	940	
CSC(C)=NOC(=O)N(C)[S+]([O-])N(C)C(=O)ON=C(C)SC [Example III]		210	LD50 [1, 3]: 40 mg/kg
COC(=O)N(C)[S+]([O-])N(C)C(=O)Oc1cccc2c1OC(C)(C)C2 (centres unmarked) [Example VII, 2,3-dihydro-2,2-dimethylbenzofuranyl-7 N-[N'-(methoxycarbonyl)-N'-(methylaminosulfinyl)]-N-methylcarbamate]	9	62	
CCCOC(=O)N(C)[S+]([O-])N(C)C(=O)ON=C(C)SC (centres unmarked) [Example VI]		160	LD50 [1, 3]: 6.6 mg/kg
CCCOC(=O)N(CC)[S+]([O-])N(C)C(=O)ON=C(C)SC (centres unmarked) [Example V]		115	LD50 [1, 3]: 7 mg/kg
CSC(C)(C)C=NOC(=O)N(C)[S+]([O-])N(C)C(=O)ON=CC(C)(C)SC [IV, N,N'-sulfinyldi[2-methyl-2-(methylthio)propionaldehyde O-(methylcarbamoyl)-oxime]]		1.8	LD50 [1, 3]: 6.5 mg/kg
CCCOC(=O)N(C)[S+]([O-])N(C)C(=O)Oc1cccc2c1OC(C)(C)C2 (centres unmarked) [IX, 2,3-dihydro-2,2-dimethylbenzofuranyl-7 N-[N'-(n-propoxycarbonyl)-N'-(methylaminosulfinyl)]-N-methylcarbamate]	9	100	
CNC(=O)ON=C(C)SC [S-methyl N-(methylcarbamoyloxy)thioacetimidate, reference compound]		10	
CCOC(=O)N(C)[S+]([O-])N(C)C(=O)Oc1cccc2c1OC(C)(C)C2 (centres unmarked) [VIII, 2,3-dihydro-2,2-dimethylbenzofuranyl-7 N-[N'-(ethoxycarbonyl)-N'-(methylaminosulfinyl)]-N-methylcarbamate]	13	56	Culex LC50 [2]: 0.04 ppm
CCCCCCCOC(=O)N(C)[S+]([O-])N(C)C(=O)Oc1cccc2c1OC(C)(C)C2 (centres unmarked) [X, 2,3-dihydro-2,2-dimethylbenzofuranyl-7 N-[N'-(n-heptoxycarbonyl)-N'-(methylaminosulfinyl)]-N-methylcarbamate]	13.5	150	Culex LC50 [2]: 0.015 ppm
CCCOC(=O)N(C)[S+]([O-])N(C)C(=O)Oc1ccccc1OC(C)C (centres unmarked) [XI, 2-isopropoxyphenyl N-[N'-(n-propoxycarbonyl)-N'-(methylaminosulfinyl)]-N-methylcarbamate]	20	500 to 1000	Culex LC50 [2]: 0.18 ppm
COC(=O)N(C)[S+]([O-])N(C)C(=O)Oc1cccc(C(C)C)c1 (centres unmarked) [XII, 3-isopropylphenyl N-[N'-(methoxycarbonyl)-N'-(methylaminosulfinyl)]-N-methylcarbamate]	80	70	
CNC(=O)Oc1cccc2c1OC(C)(C)C2 [carbofuran, 2,3-dihydro-2,2-dimethyl-7-benzofuranyl methylcarbamate, reference compound]			Mice LD50 (Swiss white mice; mouse, in vivo, po): 2-8
